Measured values taken from patent publication US20200339582A1, “Atypical Carbapenem Antibiotics with Improved Activity Against Carbapenemase-Producing Acinetobacter baumannii” (priority 2019, published 2020).
Converted amounts (≈) assume the structure as drawn. Like-named read-outs stand apart in the source and are kept apart here.

What was measured:
Type in all cases: cell-based
[1] = test system: resistant Acinetobacter baumannii producing OXA-23; experiment: MIC against Acinetobacter baumannii producing OXA-23
[2] = test system: resistant Acinetobacter baumannii producing KPC-6; experiment: MIC against Acinetobacter baumannii producing KPC-6
[3] = test system: resistant Acinetobacter baumannii producing VIM-2; experiment: MIC against Acinetobacter baumannii producing VIM-2
[4] = test system: resistant Acinetobacter baumannii producing NDM-1; experiment: MIC against Acinetobacter baumannii producing NDM-1
[5] = test system: resistant Acinetobacter baumannii producing OXA-48; experiment: MIC against Acinetobacter baumannii producing OXA-48
[6] = test system: Acinetobacter baumannii (carbapenemase produced: None); experiment: MIC against Acinetobacter baumannii, no carbapenemase produced
[7] = Acinetobacter baumannii, Table 2, enzyme produced: VIM-2, read-out: MIC
[8] = Acinetobacter baumannii, Table 2, enzyme produced: None, read-out: MIC
[9] = Table 1, carbapenemase produced: OXA-23
[10] = Table 1, carbapenemase produced: OXA-48
[11] = Table 1, carbapenemase produced: None
[12] = Table 2, enzyme produced: OXA-23
[13] = Table 2, enzyme produced: OXA-48
[14] = Acinetobacter baumannii, Table 1, carbapenemase produced: OXA-23, read-out: MIC
[15] = Acinetobacter baumannii, Table 2, enzyme produced: NDM-1, read-out: MIC
[16] = Acinetobacter baumannii, Table 1, carbapenemase produced: OXA-48, read-out: MIC
[17] = Acinetobacter baumannii, Table 2, enzyme produced: OXA-48, read-out: MIC
[18] = Acinetobacter baumannii, Table 1, carbapenemase produced: None, read-out: MIC

Row | SMILES | MIC ([2]; Acinetobacter baumannii) [µg/mL] | MIC [3, 7] [µg/mL] | MIC [6, 8] [µg/mL] | MIC [1, 9] [µg/mL] | MIC [5, 10] [µg/mL] | MIC [6, 11] [µg/mL] | MIC [1, 12] [µg/mL] | MIC [1, 14] [µg/mL] | MIC [4, 15] [µg/mL] | MIC [5, 16] [µg/mL] | MIC [5, 17] [µg/mL] | MIC [6, 18] [µg/mL] | also measured
1 | CC1(C)S[C@@H]2[C@H](NC(=O)[C@H](N)c3ccccc3)C(=O)N2[C@H]1C(=O)O [AMP, ampicillin] | 4100 (≈ 11700 µM) | > 8190 | 32 (≈ 91.6 µM) |  |  |  |  |  |  |  |  |  | MIC ([1]; Acinetobacter baumannii, Table 2, enzyme produced: OXA-23, read-out: MIC): 8190 µg/mL (≈ 23400 µM); MIC ([4]; Acinetobacter baumannii): 1020 µg/mL (≈ 2930 µM); MIC ([5]; Acinetobacter baumannii): 1020 µg/mL (≈ 2930 µM)
2 | CN(C)C(=O)[C@@H]1C[C@H](SC2=C(C(=O)O)N3C(=O)[C@H](CO)[C@H]3C2)CN1 [Compound 1] |  |  |  | 8 (≈ 22.5 µM) | 16 (≈ 45 µM) | 0.25 (≈ 0.703 µM) |  |  |  |  |  |  | 
3 | C[C@@H](O)[C@H]1C(=O)N2C(C(=O)O)=C(S[C@@H]3CN[C@H](C(=O)N(C)C)C3)CC12C (stereo partly drawn) [Compound 2a, (6S)-6-[(R)-1-Hydroxyethyl]-3-[(3S,5S)-5-(dimethylamino)carbonyl-3-pyrrolidinylthio]-5-methyl-7-oxoazabicyclo[3.2.0]hept-2-ene-2-carboxylate] |  |  |  | 4 (≈ 10.4 µM) | 1 (≈ 2.61 µM) | 0.5 (≈ 1.3 µM) |  |  |  |  |  |  | 
4 | CCC12CC(S[C@@H]3CN[C@H](C(=O)N(C)C)C3)=C(C(=O)O)N1C(=O)[C@@H]2[C@@H](C)O (stereo partly drawn) [Compound 2b, (6S)-6-[(R)-1-Hydroxyethyl]-3-[(3S,5S)-5-(dimethylamino)carbonyl-3-pyrrolidinylthio]-5-ethyl-7-oxoazabicyclo[3.2.0]hept-2-ene-2-carboxylate] |  |  |  | 4 (≈ 10.1 µM) | 4 (≈ 10.1 µM) | 2 (≈ 5.03 µM) | 4 (≈ 10.1 µM) |  |  |  |  |  | MIC ([2]; Table 2, enzyme produced: KPC-6): 4 µg/mL (≈ 10.1 µM); MIC ([3]; Table 2, enzyme produced: VIM-2): 4 µg/mL (≈ 10.1 µM); MIC ([4]; Table 2, enzyme produced: NDM-1): 2 µg/mL (≈ 5.03 µM); MIC [5, 13]: 4 µg/mL (≈ 10.1 µM); MIC ([6]; Table 2, enzyme produced: None): 2 µg/mL (≈ 5.03 µM)
5 | C[C@@H](O)[C@H]1C(=O)N2C(C(=O)O)=C(S[C@@H]3CN[C@H](CNS(N)(=O)=O)C3)[C@H](C)[C@H]12 [Doripenem, doripenem] | 128 (≈ 304 µM) | 32 (≈ 76.1 µM) | 0.25 (≈ 0.595 µM) |  |  |  | 32 (≈ 76.1 µM) | 32 (≈ 76.1 µM) | 64 (≈ 152 µM) | 16 (≈ 38 µM) | 16 (≈ 38 µM) | 0.25 (≈ 0.595 µM) | 
6 | C[C@@H](O)[C@H]1C(=O)N2C(C(=O)O)=C(S[C@@H]3CN[C@H](C(=O)Nc4cccc(C(=O)O)c4)C3)[C@H](C)[C@H]12 [Ertapenem, ertapenem] | > 512 |  | 4 (≈ 8.41 µM) |  |  |  | 256 (≈ 538 µM) | 256 (≈ 538 µM) | 256 (≈ 538 µM) |  |  | 2 (≈ 4.21 µM) | MIC ([3]; Acinetobacter baumannii): > 512 µg/mL; MIC ([5]; Acinetobacter baumannii): 128 µg/mL (≈ 269 µM); MIC [5, 13]: 128 µg/mL (≈ 269 µM)
7 | C[C@@H](O)[C@H]1C(=O)N2C(C(=O)O)=C(SCCN=CN)C[C@H]12 [Imipenem, imipenem] |  | 32 (≈ 107 µM) | 0.25 (≈ 0.835 µM) |  |  |  | 32 (≈ 107 µM) | 32 (≈ 107 µM) | 16 (≈ 53.4 µM) | 16 (≈ 53.4 µM) | 16 (≈ 53.4 µM) | 0.25 (≈ 0.835 µM) | 
8 | C[C@@H](O)[C@H]1C(=O)N2C(C(=O)O)=C(S[C@@H]3CN[C@H](C(=O)N(C)C)C3)[C@H](C)[C@H]12 [Meropenem, meropenem] | 256 (≈ 668 µM) | 64 (≈ 167 µM) | 0.5 (≈ 1.3 µM) |  |  |  | 64 (≈ 167 µM) | 64 (≈ 167 µM) |  | 8 (≈ 20.9 µM) | 16 (≈ 41.7 µM) | 0.5 (≈ 1.3 µM) | MIC ([4]; Acinetobacter baumannii): 128 µg/mL (≈ 334 µM)
